The values below are quoted from earlier work in patent publication US20230115209A1, “[…] PSILOCIN CONTAINING COMPOSITIONS AND METHODS OF USING AND MAKING THE SAME” (Orthogonal Thinker, Inc., priority 2020, published 2023).

Each structure is given as a SMILES string.

For data set [1] the following is noted: in vivo.
For data set [2] the following is noted: trace fear conditioning.

Take `CN(C)CCc1c[nH]c2cccc(OP(=O)(O)O)c12` [Psilocybin, 4-phosphoryloxy-N,N-dimethyl-tryptamine]: the “global neural signal diversity” value in data set [1] is on record as “increase global neural signal diversity”. Besides, the “extinction of the classically conditioned fear response” value in data set [2] was “facilitates extinction of the classically conditioned fear response”.
